Laboratory results from ChEMBL document CHEMBL6074626, “Recent advances in triazole synthesis via click chemistry and their pharmacological applications: A review” (Bioorg Med Chem Lett, 2024).
One block for each compound: values may come before it.

Columns and labels:
[1] = Cytotoxicity against CHO-K1 cells assessed as reduction in cell growth incubated for 72 hrs by MTT assay; details: Chinese hamster (Cricetulus griseus)
[2] = test system: K562; assay: Antiproliferative activity against human K562 cells assessed as reduction in cell viability incubated for 72 hrs by MTT assay; details: K562, 72 h
[3] = test system: HCT-116; assay: Antiproliferative activity against human HCT-116 cells assessed as reduction in cell viability incubated for 72 hrs by MTT assay; details: HCT-116, 72 h
[4] = molecular target: T1, UDP-N-acetylglucosamine--peptide N-acetylglucosaminyltransferase 110 kDa subunit (Homo sapiens, UniProt O15294)
T1 sequence (O15294 whole entry): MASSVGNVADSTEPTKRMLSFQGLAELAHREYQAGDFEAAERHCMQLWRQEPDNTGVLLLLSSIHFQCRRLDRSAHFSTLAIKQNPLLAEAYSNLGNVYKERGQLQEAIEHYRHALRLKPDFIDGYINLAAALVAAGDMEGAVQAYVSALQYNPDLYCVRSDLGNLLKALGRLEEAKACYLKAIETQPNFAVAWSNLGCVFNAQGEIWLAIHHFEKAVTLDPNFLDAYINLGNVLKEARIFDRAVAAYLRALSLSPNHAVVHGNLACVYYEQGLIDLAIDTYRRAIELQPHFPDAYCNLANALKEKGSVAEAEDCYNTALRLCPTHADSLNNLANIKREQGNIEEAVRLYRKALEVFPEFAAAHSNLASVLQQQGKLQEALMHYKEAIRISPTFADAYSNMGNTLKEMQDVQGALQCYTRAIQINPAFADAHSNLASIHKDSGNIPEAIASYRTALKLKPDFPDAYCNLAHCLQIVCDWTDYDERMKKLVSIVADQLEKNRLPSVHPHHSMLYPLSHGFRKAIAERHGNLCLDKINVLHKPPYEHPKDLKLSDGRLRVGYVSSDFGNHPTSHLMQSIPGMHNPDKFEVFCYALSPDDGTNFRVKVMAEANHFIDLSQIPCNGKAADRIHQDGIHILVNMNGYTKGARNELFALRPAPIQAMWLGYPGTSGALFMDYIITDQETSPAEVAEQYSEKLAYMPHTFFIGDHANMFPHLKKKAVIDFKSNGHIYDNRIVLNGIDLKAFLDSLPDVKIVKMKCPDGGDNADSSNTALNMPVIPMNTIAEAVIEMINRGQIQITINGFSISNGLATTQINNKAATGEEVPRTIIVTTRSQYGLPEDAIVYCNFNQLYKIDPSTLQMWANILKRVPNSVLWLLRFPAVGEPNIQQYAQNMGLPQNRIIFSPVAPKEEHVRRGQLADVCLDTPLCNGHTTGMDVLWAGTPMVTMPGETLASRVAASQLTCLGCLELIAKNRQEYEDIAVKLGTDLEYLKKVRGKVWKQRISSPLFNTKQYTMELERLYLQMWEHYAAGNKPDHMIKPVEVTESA
Description: Binding affinity to human recombinant OGT (312 to 1031 residue) assessed as inhibition constant by fluorescence based analysis

[5] = molecular target: Cystic fibrosis transmembrane conductance regulator (Homo sapiens, UniProt P13569, F508DEL); assay: Activation of CFTR F508del mutant (unknown origin)
Sequence of Cystic fibrosis transmembrane conductance regulator (P13569 as listed by the source): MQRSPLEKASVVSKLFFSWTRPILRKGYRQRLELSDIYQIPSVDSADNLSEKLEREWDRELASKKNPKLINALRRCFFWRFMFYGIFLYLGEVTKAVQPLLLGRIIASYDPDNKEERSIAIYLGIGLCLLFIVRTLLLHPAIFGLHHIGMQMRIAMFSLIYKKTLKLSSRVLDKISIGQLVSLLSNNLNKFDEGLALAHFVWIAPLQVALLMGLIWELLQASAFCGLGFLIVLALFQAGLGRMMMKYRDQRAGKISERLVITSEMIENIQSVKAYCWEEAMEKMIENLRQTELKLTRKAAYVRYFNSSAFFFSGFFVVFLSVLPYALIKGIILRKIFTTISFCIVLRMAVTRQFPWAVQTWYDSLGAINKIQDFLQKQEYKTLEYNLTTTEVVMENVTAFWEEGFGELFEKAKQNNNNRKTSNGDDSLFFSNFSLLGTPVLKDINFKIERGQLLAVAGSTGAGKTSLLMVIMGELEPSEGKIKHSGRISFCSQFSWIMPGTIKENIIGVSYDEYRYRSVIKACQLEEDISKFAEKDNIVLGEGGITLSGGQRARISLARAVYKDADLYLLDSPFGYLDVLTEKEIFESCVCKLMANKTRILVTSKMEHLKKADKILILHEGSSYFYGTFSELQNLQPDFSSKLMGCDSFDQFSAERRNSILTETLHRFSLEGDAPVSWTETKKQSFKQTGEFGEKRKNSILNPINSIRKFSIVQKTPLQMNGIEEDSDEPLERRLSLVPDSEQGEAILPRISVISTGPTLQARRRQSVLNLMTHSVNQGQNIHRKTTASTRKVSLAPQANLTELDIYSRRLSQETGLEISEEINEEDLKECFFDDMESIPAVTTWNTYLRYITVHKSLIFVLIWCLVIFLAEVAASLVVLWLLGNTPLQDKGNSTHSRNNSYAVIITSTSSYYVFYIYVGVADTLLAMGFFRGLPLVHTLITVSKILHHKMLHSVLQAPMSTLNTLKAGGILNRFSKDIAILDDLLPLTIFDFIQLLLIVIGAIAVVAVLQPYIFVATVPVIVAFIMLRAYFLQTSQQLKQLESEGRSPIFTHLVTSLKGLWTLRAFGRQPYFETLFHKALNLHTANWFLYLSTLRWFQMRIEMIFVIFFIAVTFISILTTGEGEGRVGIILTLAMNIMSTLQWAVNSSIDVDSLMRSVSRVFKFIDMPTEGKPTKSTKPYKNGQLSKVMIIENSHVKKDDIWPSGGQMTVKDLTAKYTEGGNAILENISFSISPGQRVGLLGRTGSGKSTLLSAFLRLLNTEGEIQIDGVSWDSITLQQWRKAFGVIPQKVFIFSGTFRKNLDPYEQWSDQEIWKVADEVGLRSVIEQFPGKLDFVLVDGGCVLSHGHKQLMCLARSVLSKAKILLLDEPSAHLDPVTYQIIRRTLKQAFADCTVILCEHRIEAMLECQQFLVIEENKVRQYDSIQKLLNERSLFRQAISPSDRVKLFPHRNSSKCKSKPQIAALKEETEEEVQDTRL

Structure (SMILES): O=C(Cn1cc(CSc2nc3cc(OC(F)F)ccc3[nH]2)nn1)NC1CCCCC1
IC50 at 72 h [1]: 53.3 µM

IC50 [2]: 8.5 µM
IC50 [3]: 23.1 µM
Structure (SMILES): COC(=O)CC[C@@H](C)[C@H]1CC[C@H]2[C@@H]3[C@@H](O)C[C@@H]4C[C@H](n5cc(CCCCC#Cc6nc7c(N)ncnc7n6[C@@H]6O[C@H](CO)[C@@H](C)[C@H]6C)nn5)CC[C@]4(C)[C@H]3CC[C@]12C

Ki [4]: 232 µM
Structure (SMILES): CC(=O)N[C@H]1C(n2cc(COP(=O)(O)OC[C@H]3O[C@@H](n4ccc(=O)[nH]c4=O)[C@H](O)[C@@H]3O)nn2)O[C@H](CO)[C@@H](O)[C@@H]1O (stereo not given in full)

IC50 [5]: 660 nM
Structure (SMILES): Cc1ccc(-n2cc(C3(c4ccc5c(c4)OC(F)(F)O5)CC3)nn2)cc1-c1cccc(C(=O)O)c1
